Assay results from the NIST ThermoML archive (doi:10.1021/acs.jced.5b00922).

Experiment: mn = molality of the nth substance listed, in mol/kg
Conditions: 100 kPa, Liquid; for viscosity: Capillary tube (Ostwald / Ubbelohde) method; for mass density: Pycnometric method

NCCCNCCCN [bis(3-aminopropyl)amine] + O
Conditions	mass density [kg/m3]	viscosity [mPa·s]
298 K, m1 = 0.102	997.56	0.95
298 K, m1 = 0.313	997.47	1.07
298 K, m1 = 0.537	997.32	1.23
298 K, m1 = 0.773	997.12	1.41
298 K, m1 = 1.024	996.9	1.57
298 K, m1 = 1.291	996.71	1.74
303 K, m1 = 0.102	996.21	0.84
303 K, m1 = 0.313	996.12	0.95
303 K, m1 = 0.537	995.98	1.09
303 K, m1 = 0.773	995.83	1.24
303 K, m1 = 1.024	995.67	1.39
303 K, m1 = 1.291	995.53	1.55
308 K, m1 = 0.102	994.48	0.76
308 K, m1 = 0.313	994.37	0.85
308 K, m1 = 0.537	994.17	0.98
308 K, m1 = 0.773	994	1.1
308 K, m1 = 1.024	993.82	1.24
308 K, m1 = 1.291	993.64	1.38
313 K, m1 = 0.102	992.55	0.69
313 K, m1 = 0.313	992.43	0.77
313 K, m1 = 0.537	992.27	0.88
313 K, m1 = 0.773	992.1	0.99
313 K, m1 = 1.024	991.92	1.11
313 K, m1 = 1.291	991.73	1.23
318 K, m1 = 0.102	990.18	0.61
318 K, m1 = 0.313	989.94	0.69
318 K, m1 = 0.537	989.71	0.8
318 K, m1 = 0.773	989.48	0.9
318 K, m1 = 1.024	989.3	1
318 K, m1 = 1.291	989.09	1.11
323 K, m1 = 0.102	987.58	0.55
323 K, m1 = 0.313	987.36	0.63
323 K, m1 = 0.537	987.13	0.73
323 K, m1 = 0.773	986.93	0.81
323 K, m1 = 1.024	986.74	0.9
323 K, m1 = 1.291	986.55	0.98
